Laboratory results: US10545133B2, “Molecular signatures of invasive cancer subpopulations” (The Johns Hopkins University, priority 2013, dated 2020)

Tests used:
Assay type in all cases: cell-based, mouse
[1] = system: MMTV-PyMT tumor organoids; assay: Oxytocin contractility experiment
Text: FIG. 8. Leader Cells Are Molecularly Distinct from Normal Differentiated Myoepithelial Cells and Coexpress Lumenal Epithelial Markers, Related to FIG. 1 (A-C) Leader cells from MMTV-PyMT tumor organoids stained with K14 and K8 (A), K8, p63, and phalloidin (B), or E-cadherin (Ecad) and phalloidin (C). Arrow in (A), a K14+K8+ cell. Arrow in (B), a K8+p63+ cell. 75% of leaders were K14+K8+(n=21/28) and 34% of leaders were K8+p63+(n=22/65). Blue arrows in (C), Ecadherin staining at cell-cell contacts between leader and follower cells. […] Data presented as mean±sd. n=3 normal and tumor organoids. **p<0.01, *p<0.05; p values determined by two-sided t test. […] (G) The reduction in organoid area calculated in (F) provides a proxy for oxytocin-dependent contractility. Organoids were incubated in oxytocin at the specified doses, and the change in area was determined. […] N=23-30 organoids per condition from 3 independent experiments. *p<0.005, […]; p values determined by two-sided t test. […]
Normal mammary epithelial organoids and MMTV-PyMT tumor organoids were embedded in 3D collagen I matrix and cultured in FGF2 organoid media for 4 days. Normal and tumor organoids were then monitored by DIC time-lapse microscopy collecting images every 5 min. […]

[2] = system: MMTV-PyMT tumor organoids; assay: Mitosis (pH3) and K14 staining of tumor organoids treated with a mitosis inhibitor; settings: aphidicolin 10 mM from day 0, 3D collagen matrix
Text: FIG. 4. Lumenal Tumor Cells Acquire Markers of Basal Differentiation (A) Mouse mammary tumor organoids grown in 3D collagen matrix stained with K8 and K14. (B) Bar graph of percentage of tumor organoids with K8 or K14 intensity equal to or greater than 1+ as a function of time. K14 and K8 intensity was quantified into 0 (no or few), 1 (intermediate), or 2 (bright) K14 signal. Data are presented as mean±SD. For K14: n=719 organoids from 5-8 mice per day; for K8: n=269 organoids from 3 mice per day. (C) Mammary tumor organoids grown in 3D collagen matrix stained with p63 and DAPI. (D) The percentage of organoids with nuclei positive for p63 was counted. Data are presented as mean±SD. n=114 organoids from 2 mice per day. (E) Invasion was quantified by scoring protrusive morphology of cancer cells in contact with the ECM. Data are presented as mean±SD. n=916 organoids from 4-7 mice per day. (F) Tumor organoids treated from day 0 with DMSO vehicle or a mitosis inhibitor (aphidicolin 10 mM) stained with K14, pH3, and DAPI. […] (H) K14 intensity scored in vehicle or aphidicolin. K14 intensity was quantified into 0 (no or few), 1 (intermediate), or 2 (bright) K14 signal. n=110 organoids from 2 mice per condition. […] All p values were determined by two-sided t test. *p<0.05. **p<0.01. ***p<0.001. […]

K14+ cells = assay: Doxorubicin challenge of mammary carcinoma cells; settings: challenge with doxorubicin

## CC[C@H](C)[C@@H]1NC(=O)[C@H](Cc2ccc(O)cc2)NC(=O)[C@@H](N)CSSC[C@@H](C(=O)N2CCC[C@H]2C(=O)N[C@@H](CC(C)C)C(=O)NCC(N)=O)NC(=O)[C@H](CC(N)=O)NC(=O)[C@H](CCC(N)=O)NC1=O [oxytocin]
[1]; normal mammary and MMTV-PyMT tumor organoids, oxytocin at nM concentrations
  time of maximal contraction postincubation: 25 min
[1]; oxytocin 5 and 50 nM, 3D collagen I, day 4
  contraction of leader cells in response to oxytocin: did not contract

## C[C@@]1(CO)[C@H](O)CC[C@@]2(C)[C@H]1CC[C@H]1C[C@@H]3C[C@@]12CC[C@]3(O)CO [aphidicolin]
[2]
  increase in K14+ cells (K14 intensity): did not prevent an increase in K14+ cells
  mitosis (pH3+ nuclei per tumor organoid): blocked mitosis completely

## COc1cccc2c1C(=O)c1c(O)c3c(c(O)c1C2=O)C[C@@](O)(C(=O)CO)C[C@@H]3O[C@H]1C[C@H](N)[C@H](O)[C@H](C)O1 [doxorubicin]
K14+ cells
  representation of K14+ cells among the intrinsically resistant cells: strongly overrepresented
